Data from patent US12528815B2, “5-amino-8-(4-pyridyl)-[1,2,4]triazolo[4,3-c]pyrimidin-3-one compounds for use against cancer” (Nxera Pharma UK Limited, priority 2020, dated 2026).

What was measured:
[1] = target: T1, human adenosine A1 receptor (Homo sapiens, UniProt P30542); assay: Inhibition binding assay, human adenosine A1 receptor membranes, [3H]DPCPX; settings: 1 nM [3H]DPCPX, 25° C., 1 h; IC50 converted to Ki with Cheng-Prusoff; read-out: A1 pKi (converted)
T1 construct: expressed in transfected cells; host or cells: HEK293 cells infected with BacMam (the same paragraph also labels the preparation CHO-hA1)
T1 sequence (P30542 1-326): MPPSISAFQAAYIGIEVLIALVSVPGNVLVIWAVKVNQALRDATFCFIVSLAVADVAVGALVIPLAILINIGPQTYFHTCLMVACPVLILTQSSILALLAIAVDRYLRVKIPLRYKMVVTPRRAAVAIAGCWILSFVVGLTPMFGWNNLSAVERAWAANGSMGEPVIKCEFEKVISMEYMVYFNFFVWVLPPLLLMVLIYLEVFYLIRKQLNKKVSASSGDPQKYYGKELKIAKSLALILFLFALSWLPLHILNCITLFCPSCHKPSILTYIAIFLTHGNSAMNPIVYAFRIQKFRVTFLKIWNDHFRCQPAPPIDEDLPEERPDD
How it was run: (§1)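 Membranes from BacMam-infected HEK293 cells (0.2 μg A2A, 1.4 μg A1) incubated 1 h at 25° C with test compound and 1 nM [3H]ZM241385 (A2A; 50 mM Tris-HCl pH 7.4) or [3H]DPCPX (A1; plus 100 mM NaCl, 10 mM MgCl2). Nonspecific: 1 μM CGS15943 or DPCPX. Filtration, scintillation; IC50 converted to Ki via Cheng-Prusoff.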

[2] = target: T2, human adenosine A2A receptor (Homo sapiens, UniProt P29274); assay: Inhibition binding assay, human adenosine A2A receptor membranes, [3H]ZM241385; settings: 1 nM [3H]ZM241385, HEK293-hA2A membranes, 25° C., 1 h; IC50 converted to Ki with Cheng-Prusoff; read-out: A2A pKi (converted)
T2 construct: expressed in transfected cells; host or cells: HEK293 cells infected with BacMam
How it was run: as §1

T2 sequence (P29274 whole entry): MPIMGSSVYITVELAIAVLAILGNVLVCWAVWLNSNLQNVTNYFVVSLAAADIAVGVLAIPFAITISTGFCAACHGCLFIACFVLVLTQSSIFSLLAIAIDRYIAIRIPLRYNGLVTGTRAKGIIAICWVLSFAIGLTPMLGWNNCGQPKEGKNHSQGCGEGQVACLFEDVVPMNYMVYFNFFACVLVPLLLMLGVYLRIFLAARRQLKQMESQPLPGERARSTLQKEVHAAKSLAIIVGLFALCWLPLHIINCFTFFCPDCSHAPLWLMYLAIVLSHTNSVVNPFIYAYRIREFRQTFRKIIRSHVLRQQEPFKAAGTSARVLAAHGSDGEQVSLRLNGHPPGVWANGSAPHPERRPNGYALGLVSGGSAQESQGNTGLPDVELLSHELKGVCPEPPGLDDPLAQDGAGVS

| Compound | Ki [1] [nM] | Ki [2] [nM] |
| --- | --- | --- |
| Cc1cc(-c2c(-c3ccccc3)nc(N)n3c(=O)n(C4CSCc5ccccc54)nc23)cc(C)n1 (stereo not shown) [Example 1-13, 5-amino-8-(2,6-dimethyl-4-pyridyl)-2-isothiochroman-4-yl-7-phenyl-[1,2,4]triazolo[4,3-c]pyrimidin-3-one] | 158 | 1.26 |
| Cc1cc(-c2c(-c3ccccc3)nc(N)n3c(=O)n(Cc4ccc(F)cc4C)nc23)cc(C)n1 [Example 1-18, 5-amino-8-(2,6-dimethyl-4-pyridyl)-2-[(4-fluoro-2-methyl-phenyl)methyl]-7-phenyl-[1,2,4]triazolo[4,3-c]pyrimidin-3-one] | 10 | 0.0794 |
| COc1cnc(Cn2nc3c(-c4cc(C)nc(CO)c4)c(-c4ccccc4)nc(N)n3c2=O)c(F)c1 [Example 1-47, 5-amino-2-[(3-fluoro-5-methoxy-2-pyridyl)methyl]-8-[2-(hydroxymethyl)-6-methyl-4-pyridyl]-7-phenyl-[1,2,4]triazolo[4,3-c]pyrimidin-3-one] | 501 | 7.94 |
| COc1cccc(Cn2nc3c(-c4cc(C)nc(C)c4)c(-c4ccccc4)nc(N)n3c2=O)n1 [Example 1-6, 5-amino-8-(2,6-dimethyl-4-pyridyl)-2-[(6-methoxy-2-pyridyl)methyl]-7-phenyl-[1,2,4]triazolo[4,3-c]pyrimidin-3-one] | 200 | 0.794 |
| Cc1cc(-c2c(-c3ccccc3)nc(N)n3c(=O)n(Cc4ccc(F)c(=O)n4C)nc23)cc(C)n1 [Example 1-10, 5-amino-8-(2,6-dimethyl-4-pyridyl)-2-[(5-fluoro-1-methyl-6-oxo-2-pyridyl)methyl]-7-phenyl-[1,2,4]triazolo[4,3-c]pyrimidin-3-one] | 794 | 20 |
| Cc1cc(-c2c(-c3ccccc3)nc(N)n3c(=O)n(C(C)Cc4ccccc4)nc23)cc(C)n1 (stereo not shown) [Example 1-81, 5-amino-8-(2,6-dimethyl-4-pyridyl)-2-(1-methyl-2-phenyl-ethyl)-7-phenyl-[1,2,4]triazolo[4,3-c]pyrimidin-3-one] | 631 | 25.1 |
| Cc1cc(-c2c(-c3ccccc3)nc(N)n3c(=O)n(CCN(C)C4CCN(c5ccccc5)CC4)nc23)cc(C)n1 [Example 1-93, 5-amino-8-(2,6-dimethyl-4-pyridyl)-2-[2-[methyl-(1-phenyl-4-piperidyl)amino]ethyl]-7-phenyl-[1,2,4]triazolo[4,3-c]pyrimidin-3-one] | 631 | 31.6 |
| Cc1cc(-c2c(-c3ccccc3)nc(N)n3c(=O)n(Cc4cccc(=O)[nH]4)nc23)cc(C)n1 [Example 1-9, 5-amino-8-(2,6-dimethyl-4-pyridyl)-2-[(6-oxo-1H-pyridin-2-yl)methyl]-7-phenyl-[1,2,4]triazolo[4,3-c]pyrimidin-3-one] | 126 | 12.6 |
| [2H]c1c([2H])c([2H])c(-c2nc(N)n3c(=O)n(Cc4ccc(F)cn4)nc3c2-c2cc(C)nc(CO)c2)c([2H])c1[2H] [Example 1-49, 5-amino-2-[(5-fluoro-2-pyridyl)methyl]-8-[2-(hydroxymethyl)-6-methyl-4-pyridyl]-7-(2,3,4,5,6-pentadeuteriophenyl)-[1,2,4]triazolo[4,3-c]pyrimidin-3-one] | 398 | 1.58 |
| Cc1cc(-c2c(-c3ccccc3)nc(N)n3c(=O)n(C(CNCC(F)(F)F)c4ccccc4)nc23)cc(C)n1 (stereo not shown) [Example 1-31, 5-amino-8-(2,6-dimethyl-4-pyridyl)-7-phenyl-2-[1-phenyl-2-(2,2,2-trifluoroethylamino)ethyl]-[1,2,4]triazolo[4,3-c]pyrimidin-3-one] | 316 | 10 |
| Cc1cc(-c2c(-c3ccccc3)nc(N)n3c(=O)n(Cc4ccccc4C4CCNCC4)nc23)cc(C)n1 [Example 1-30, 5-amino-8-(2,6-dimethyl-4-pyridyl)-7-phenyl-2-[[2-(4-piperidyl)phenyl]methyl]-[1,2,4]triazolo[4,3-c]pyrimidin-3-one] | 39.8 | 0.501 |
| Cc1cc(-c2c(-c3ccccc3)nc(N)n3c(=O)n(CC4CCCOC4)nc23)cc(CO)n1 (single isomer, unassigned) [Example 2-92-iso-2, 5-amino-8-[2-(hydroxymethyl)-6-methyl-4-pyridyl]-7-phenyl-2-(tetrahydropyran-3-ylmethyl)-[1,2,4]triazolo[4,3-c]pyrimidin-3-one] | 316 | 1.26 |
| Cc1cc(-c2c(-c3ccccc3)nc(N)n3c(=O)n(CCc4ccccc4)nc23)cc(C(F)(F)F)n1 [Example 1-88, 5-amino-8-[2-methyl-6-(trifluoromethyl)-4-pyridyl]-7-phenyl-2-(2-phenylethyl)-[1,2,4]triazolo[4,3-c]pyrimidin-3-one] | 100 | 12.6 |
| Cc1cc(N2CCC(NCCn3nc4c(-c5cc(C)nc(C)c5)c(-c5ccccc5)nc(N)n4c3=O)CC2)[nH]n1 [Example 1-95, 5-amino-8-(2,6-dimethyl-4-pyridyl)-2-[2-[[1-(3-methyl-1H-pyrazol-5-yl)-4-piperidyl]amino]ethyl]-7-phenyl-[1,2,4]triazolo[4,3-c]pyrimidin-3-one] | > 2000 | 316 |
| Cc1cc(-c2c(-c3ccccc3)nc(N)n3c(=O)n(CCc4ccc(C(=O)O)cc4)nc23)cc(C)n1 [Example 1-85, 4-[2-[5-amino-8-(2,6-dimethyl-4-pyridyl)-3-oxo-7-phenyl-[1,2,4]triazolo[4,3-c]pyrimidin-2-yl]ethyl]benzoic acid] | > 3980 | 200 |
| COc1cc(-c2c(-c3ccccc3)nc(N)n3c(=O)n(Cc4ccc(F)cn4)nc23)cc(C)n1 [Example 1-78, 5-amino-2-[(5-fluoro-2-pyridyl)methyl]-8-(2-methoxy-6-methyl-4-pyridyl)-7-phenyl-[1,2,4]triazolo[4,3-c]pyrimidin-3-one] | 158 | 0.126 |

Other lines, results leading:

| Ki [1] [nM] | Ki [2] [nM] | Compound |
| --- | --- | --- |
| > 3160 | 158 | CCOc1nc(N)n2c(=O)n(CCC(F)(F)F)nc2c1-c1cc(C)nc(C)c1 [Example 3-3, 5-amino-8-(2,6-dimethyl-4-pyridyl)-7-ethoxy-2-(3,3,3-trifluoropropyl)-[1,2,4]triazolo[4,3-c]pyrimidin-3-one] |
| 794 | 15.8 | Cc1cc(-c2c(-c3ccccc3)nc(N)n3c(=O)n(CCC#N)nc23)cc(C)n1 [Example 2-11, 3-[5-amino-8-(2,6-dimethyl-4-pyridyl)-3-oxo-7-phenyl-[1,2,4]triazolo[4,3-c]pyrimidin-2-yl]propanenitrile] |
| > 3980 | 398 | Cc1cc(-c2c(-c3ccccc3)nc(N)n3c(=O)n(CCCN4CCCCC4)nc23)cc(C)n1 [Example 2-111, 5-amino-8-(2,6-dimethyl-4-pyridyl)-7-phenyl-2-[3-(1-piperidyl)propyl]-[1,2,4]triazolo[4,3-c]pyrimidin-3-one] |
| > 3160 | 1260 | COc1nc(N)n2c(=O)n(CCC(F)(F)F)nc2c1-c1cc(C)nc(C)c1 [Example 3-8, 5-amino-8-(2,6-dimethyl-4-pyridyl)-7-methoxy-2-(3,3,3-trifluoropropyl)-[1,2,4]triazolo[4,3-c]pyrimidin-3-one] |
| 631 | 20 | CCn1nc2c(-c3cc(C)nc(C)c3)c(-c3ccccc3)nc(N)n2c1=O [Example 2-3, 5-amino-8-(2,6-dimethyl-4-pyridyl)-2-ethyl-7-phenyl-[1,2,4]triazolo[4,3-c]pyrimidin-3-one] |
| 631 | 15.8 | Cc1cc(-c2c(-c3ccccc3)nc(N)n3c(=O)n(CCN4CCC(F)(F)CC4)nc23)cc(C)n1 [Example 2-101, 5-amino-2-[2-(4,4-difluoro-1-piperidyl)ethyl]-8-(2,6-dimethyl-4-pyridyl)-7-phenyl-[1,2,4]triazolo[4,3-c]pyrimidin-3-one] |
| > 3980 | 15.8 | Cc1cc(-c2c(-c3ccc(F)cc3F)nc(N)n3c(=O)n(CCC(F)(F)F)nc23)cc(C)n1 [Example 2-34, 5-amino-7-(2,4-difluorophenyl)-8-(2,6-dimethyl-4-pyridyl)-2-(3,3,3-trifluoropropyl)-[1,2,4]triazolo[4,3-c]pyrimidin-3-one] |
| > 3160 | 126 | Cc1cc(-c2c(-c3ccccc3)nc(N)n3c(=O)n(CCN4CCN(C)CC4)nc23)cc(C)n1 [Example 2-102, 5-amino-8-(2,6-dimethyl-4-pyridyl)-2-[2-(4-methylpiperazin-1-yl)ethyl]-7-phenyl-[1,2,4]triazolo[4,3-c]pyrimidin-3-one] |
| 251 | 0.316 | Cc1cc(-c2c(-c3ccccc3)nc(N)n3c(=O)n(CC4CCCCO4)nc23)cc(C)n1 (stereo not shown) [Example 2-82, 5-amino-8-(2,6-dimethyl-4-pyridyl)-7-phenyl-2-(tetrahydropyran-2-ylmethyl)-[1,2,4]triazolo[4,3-c]pyrimidin-3-one] |
| 200 | 1.58 | Cc1cc(-c2c(-c3ccccc3)nc(N)n3c(=O)n(CC(=O)N(C)C4CC4)nc23)cc(C)n1 [Example 2-28, 2-[5-amino-8-(2,6-dimethyl-4-pyridyl)-3-oxo-7-phenyl-[1,2,4]triazolo[4,3-c]pyrimidin-2-yl]-N-cyclopropyl-N-methyl-acetamide] |
